In article PMC11174489, “In Vitro Activation of Human Adrenergic Receptors and Trace Amine-Associated Receptor 1 by Phenethylamine Analogues Present in Food Supplements” (Nutrients, 2024):

How the values were obtained:
Format in all cases: cell-based
[1] = target: T1, human adrenergic receptor (ADR) α1B (Homo sapiens, UniProt P35368); assay: ADRα1B activation, Ca2+ influx (Fluo-8) in overexpressing chem-1 cells
T1 construct: host or cells: rat chem-1 cells
T1 sequence (P35368 1-520): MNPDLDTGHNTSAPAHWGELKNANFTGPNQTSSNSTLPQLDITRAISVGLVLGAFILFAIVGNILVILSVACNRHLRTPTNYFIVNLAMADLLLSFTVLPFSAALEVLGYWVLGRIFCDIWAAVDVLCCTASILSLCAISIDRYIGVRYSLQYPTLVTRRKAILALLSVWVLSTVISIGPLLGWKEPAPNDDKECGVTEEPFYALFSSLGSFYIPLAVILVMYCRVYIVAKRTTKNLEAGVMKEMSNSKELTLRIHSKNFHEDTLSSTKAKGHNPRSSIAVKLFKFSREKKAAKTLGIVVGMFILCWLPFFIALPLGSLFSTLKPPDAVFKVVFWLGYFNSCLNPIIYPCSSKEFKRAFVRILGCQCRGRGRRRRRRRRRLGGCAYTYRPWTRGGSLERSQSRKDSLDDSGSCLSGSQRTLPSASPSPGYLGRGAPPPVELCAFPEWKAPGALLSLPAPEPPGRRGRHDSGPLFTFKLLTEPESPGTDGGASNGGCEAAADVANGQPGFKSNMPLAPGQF
Excerpt: (§1) Cells overexpressing human ADRs α1A, α1B, α1D, α2A, α2B, β1 and β2 (Eurofins Discovery Services, St. Charles, MO, USA, product numbers: HTS087RTA, HTS158RTA, HTS216RTA, HTS096RTA, HTS157LRTA, HTS104RTA and HTS073RTA, respectively) were used to study the potency (EC50) and efficacy (Emax) of the selected compounds for these receptors by quantifying Ca^2+ influx upon receptor activation. ADRα1A, α1B, α1D, α2A, β1 and β2 were overexpressed in rat chem-1 cells. ADRα2B was overexpressed in HEK293 cells. The cells were seeded (10,000–50,000 cells/well) in a black 96-well plate (VWR International, Leuven, Belgium) and incubated at 37 °C and 5% CO2 for 24 h. After 24 h, the cells were washed with Hank’s balanced salt solution (HBSS) (Gibco, Paisley, UK) containing 0.35 g/L sodium bicarbonate and incubated with 5 µg/mL Fluo-8 AM in HBSS (pH 7.4) supplemented with 2.5 mM probenecid for 1 h. […] Peak tops of the obtained fluorescence response–time curves were corrected for baseline fluorescence and used to construct concentration–response relationships.
(§2) Concentration–response relationships for TAAR1 activation are presented as percentages of the maximal intracellular cAMP level induced by full the TAAR1 agonist phenethylamine and corrected for baseline cAMP accumulation. […] Experiments were run in duplicate in 7–9 independent experiments for ADR and were run in 3–5 independent experiments for TAAR1.

[2] = target: T2, human adrenergic receptor (ADR) β1 (Homo sapiens, UniProt P08588); assay: ADRβ1 activation, Ca2+ influx (Fluo-8) in overexpressing chem-1 cells; settings: Chem-1, read-out: ADRβ1 Emax
T2 construct: host or cells: rat chem-1 cells
T2 sequence (P08588 whole entry): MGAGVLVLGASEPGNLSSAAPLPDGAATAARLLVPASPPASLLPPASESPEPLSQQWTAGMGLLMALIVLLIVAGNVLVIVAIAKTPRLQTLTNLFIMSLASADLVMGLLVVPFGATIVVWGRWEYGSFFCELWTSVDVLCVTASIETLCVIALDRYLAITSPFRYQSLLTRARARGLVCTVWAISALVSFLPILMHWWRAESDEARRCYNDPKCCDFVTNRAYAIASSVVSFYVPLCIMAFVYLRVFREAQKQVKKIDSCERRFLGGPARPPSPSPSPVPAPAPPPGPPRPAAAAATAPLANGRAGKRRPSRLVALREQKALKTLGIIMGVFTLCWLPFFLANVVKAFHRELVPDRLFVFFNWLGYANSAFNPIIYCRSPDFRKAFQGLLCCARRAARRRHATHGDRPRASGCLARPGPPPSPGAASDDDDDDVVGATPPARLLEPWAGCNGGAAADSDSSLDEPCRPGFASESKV
Excerpt: as §1, §2

[3] = target: T3, human adrenergic receptor (ADR) α1D (Homo sapiens, UniProt P25100); assay: ADRα1D activation, Ca2+ influx (Fluo-8) in overexpressing chem-1 cells
T3 construct: host or cells: rat chem-1 cells
T3 sequence (P25100 1-572): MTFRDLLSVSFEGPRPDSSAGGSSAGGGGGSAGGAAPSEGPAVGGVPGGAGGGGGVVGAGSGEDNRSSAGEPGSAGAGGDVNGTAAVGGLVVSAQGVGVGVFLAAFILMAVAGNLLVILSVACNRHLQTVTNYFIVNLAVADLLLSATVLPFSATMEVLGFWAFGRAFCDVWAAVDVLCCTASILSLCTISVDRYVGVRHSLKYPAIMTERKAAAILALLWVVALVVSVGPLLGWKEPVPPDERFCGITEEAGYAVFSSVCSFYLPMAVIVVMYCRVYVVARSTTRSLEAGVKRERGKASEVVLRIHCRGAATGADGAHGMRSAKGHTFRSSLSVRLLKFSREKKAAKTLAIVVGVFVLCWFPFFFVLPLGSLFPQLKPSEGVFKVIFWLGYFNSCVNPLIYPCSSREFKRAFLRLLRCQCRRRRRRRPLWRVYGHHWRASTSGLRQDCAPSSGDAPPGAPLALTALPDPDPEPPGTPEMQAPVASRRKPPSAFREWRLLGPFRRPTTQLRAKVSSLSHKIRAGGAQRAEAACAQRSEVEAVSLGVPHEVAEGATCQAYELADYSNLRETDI

[4] = target: T4, human adrenergic receptor (ADR) α2A (Homo sapiens, UniProt P08913); assay: ADRα2A activation, Ca2+ influx (Fluo-8) in overexpressing chem-1 cells
T4 construct: host or cells: rat chem-1 cells
T4 sequence (P08913 1-465): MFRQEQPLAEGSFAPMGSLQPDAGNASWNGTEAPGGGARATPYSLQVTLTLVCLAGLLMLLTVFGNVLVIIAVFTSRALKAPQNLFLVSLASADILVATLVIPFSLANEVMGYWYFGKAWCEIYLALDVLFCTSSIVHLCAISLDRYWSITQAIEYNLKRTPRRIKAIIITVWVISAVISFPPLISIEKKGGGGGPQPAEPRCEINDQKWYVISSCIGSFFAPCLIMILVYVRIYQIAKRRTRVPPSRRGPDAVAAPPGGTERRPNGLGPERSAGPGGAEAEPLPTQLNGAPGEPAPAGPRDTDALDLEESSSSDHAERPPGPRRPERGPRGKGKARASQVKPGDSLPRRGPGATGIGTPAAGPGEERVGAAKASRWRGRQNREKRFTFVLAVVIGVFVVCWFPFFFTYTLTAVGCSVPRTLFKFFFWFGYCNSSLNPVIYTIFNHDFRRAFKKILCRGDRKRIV

[5] = target: T5, human adrenergic receptor (ADR) α1A (Homo sapiens, UniProt P35348); assay: ADRα1A activation, Ca2+ influx (Fluo-8) in overexpressing chem-1 cells; settings: Chem-1
T5 construct: host or cells: rat chem-1 cells
T5 sequence (P35348 1-466): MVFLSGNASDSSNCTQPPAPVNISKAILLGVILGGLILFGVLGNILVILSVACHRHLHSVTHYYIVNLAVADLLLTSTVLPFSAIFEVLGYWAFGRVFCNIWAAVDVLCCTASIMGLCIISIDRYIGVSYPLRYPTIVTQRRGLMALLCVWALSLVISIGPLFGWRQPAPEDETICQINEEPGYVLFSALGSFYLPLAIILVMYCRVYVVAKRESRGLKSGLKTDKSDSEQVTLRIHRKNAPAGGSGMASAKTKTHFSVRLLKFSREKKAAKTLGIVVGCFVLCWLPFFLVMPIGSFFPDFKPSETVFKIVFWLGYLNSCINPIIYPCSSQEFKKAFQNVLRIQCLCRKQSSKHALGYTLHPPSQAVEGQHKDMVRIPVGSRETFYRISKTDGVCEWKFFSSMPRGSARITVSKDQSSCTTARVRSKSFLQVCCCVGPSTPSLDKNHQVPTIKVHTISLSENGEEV

[6] = target: T6, human adrenergic receptor (ADR) β2 (Homo sapiens, UniProt P07550); assay: ADRβ2 activation, Ca2+ influx (Fluo-8) in overexpressing chem-1 cells
T6 construct: host or cells: rat chem-1 cells

[7] = Ca2+ response, chem-1 cells, average (95% confidence interval), 7–9 experiments
[8] = % of maximal signal obtained by adrenaline, average (95% CI)

Question: Which results are given for `CNC[C@H](O)c1ccc(O)c(O)c1` [Adrenaline, adrenaline, reference compound]?
Answer: Emax ([1]; Chem-1, read-out: ADRα1B Emax): 99%; Emax [2]: 99%; EC50 [3, 7]: 0.0017 µM; Emax ([3]; Chem-1): 99%; Emax ([4]; Chem-1, % of maximal signal obtained by adrenaline, average (95% CI)): 105%; Emax [5]: 98%; Emax ([6]; Chem-1): 104%

Question: How did the “ADRα1B Emax” value [1, 8] turn out when Methyltyramine was run?
Answer: The value was “-”.

Question: What about the EC50 ([1]; Ca2+ response, chem-1 cells, average (95% confidence interval), 7–9 experiments, read-out: ADRα1B EC50) of the same molecule?
Answer: The EC50 was greater than 300 µM.

Question: And the “ADRα1D Emax” value [3, 8]?
Answer: The value was “-”.

Question: And the EC50 [4, 7]?
Answer: The EC50 was greater than 300 µM.

Question: And the “ADRβ2 Emax” value [6, 8]?
Answer: The value was “-”.

Question: And the EC50 [6, 7]?
Answer: The EC50 was greater than 300 µM.
